In publication PMC8318587, “Structure-guided microbial targeting of antistaphylococcal prodrugs” (eLife, 2021):
Entries after “also recorded” stand apart in the source; their conditions may differ.

Assays:
[1] = tested on: human sera; assay: Esterase substrate specificity, fluorogenic SAR library kinetics in serum; assay type: in vitro ADME
Protocol: (§1) Kinetic measurements were performed according to [White et al., 2018] with minor variation. Lyophilized human and mouse sera were resuspended according to manufacturer instructions in highly pure, filtered water at protein concentrations of 85 mg/mL and 70 mg/mL, respectively. One milliliter of resuspended serum was added to a 24 mL mastermix for a final concentration of 31.25 mM Tris pH 7.5, 312.5 mM NaCl, 1.25 mM MgCl2, 12.5% glycerol, and 3.4 mg/mL or 2.8 mg/mL protein for human and mouse serum, respectively. For purified proteins, 5 mL of a 75 µg/mL stock was added to yield a 20 mL mastermix containing 31.25 mM Tris pH 7.5, 312.5 mM NaCl, 1.25 mM MgCl2, 12.5% glycerol, and 18.75 µg/mL protein. Mastermix was stored on ice when not in use. Twenty microliters of mastermix was transferred to a black, 96-well half area microplate (Corning, CLS3993) and prewarmed at 37°C. Fluorogenic substrates were prepared as 10 mM stock solutions in 100% DMSO and were diluted in water to a starting concentration of 500 µM. Enzyme catalyzed substrate hydrolysis was initiated by addition of 5 µL substrate dilution in technical duplicate to the prewarmed serum or protein solution. Final assay concentrations were as follows: 25 mM Tris pH 7.5, 250 mM NaCl, 1 mM MgCl2, 10% glycerol, and protein at a concentration of 2.72 mg/mL (human serum), 2.24 mg/mL (mouse serum), or 15 µg/mL (FrmB, GloB). The resulting change in fluorescence (λex = 485 nm, λem = 520 nm) was followed for 15 min at 37°C, collecting data every 30 s on a FLUOstar Omega microplate reader (BMG Labtech). Fluorescence measurements were converted to molar concentrations using a fluorescein standard curve (2.5 nmol–0.6 pmol). The initial rates of reaction were measured three independent times with two technical replicates per measurement and fit to a line using GraphPad Prism (GraphPad Software, La Jolla, CA). Initial rates of reaction were plotted versus the concentration of substrate and fit to a standard Michaelis–Menten equation (v = Vmax[S]/(Km + [S])), yielding estimates of Vmax and Km. Values for kcat and kcat/Km were calculated based on amount of enzyme added when purified enzymes were used.

[2] = tested on: mouse sera; assay: as above; assay type: in vitro ADME
Protocol: as §1

[3] = tested on: S. aureus; assay: Microfluidics live cell imaging of pro-fluorescent substrate activation; assay type: cell-based, Staphylococcus aureus; conditions: 10 µM pro-fluorescent substrate, 37°C; for Intracellular activation (fluorescence) in live S. aureus, in words: 30 min of observation
Protocol: Overnight cultures of S. aureus were grown in LB media, back diluted 1:500, and grown to early exponential phase (OD600 0.1–0.15), then washed in 1× PBS, and loaded on a bacterial CellASIC ONIX2 microfluidic plate. Prior to cell loading, the microfluidics plate lines were flushed with 1× PBS + 1% DMSO or 10 µM fluorescent pro-substrate in 1× PBS + 1% DMSO, and the plate was preincubated at 37°C. The microfluidics plate was loaded onto a Nikon Ti-E inverted microscope (Nikon Instruments, Inc) equipped with a 100× Plan N (N.A. = 1.45) Ph3 objective, SOLA SE Light Engine (Lumencor), heated control chamber (OKO Labs), and an ORCA-Flash4.0 sCMOS camera (Hammamatsu Photonics). The GFP filter set was purchased from Chroma Technology Corporation. Cells were loaded into the chamber until a single field of view contained 50–150 cells or cell clusters. […] Images were acquired every two min for a total of 44 min, and all experiments were undertaken at 37°C. The phase-contrast exposure time was kept constant at 200 ms, and the fluorescent channel exposure time was kept constant at 500 ms. For fluorescent images, the gain remained constant across all experiments. Image capture and analysis was performed using Nikon Elements Advanced Research software. Individual cells or clusters of cells were auto detected in the fluorescent channel using the intrinsic background fluorescence of each cell. […] Fluorescent intensity for each individual cell or cluster of cells was measured through the duration of the experiment and normalized to the area of the identified cell to yield the mean fluorescent intensity. Background cell autofluorescence was corrected by subtracting the average fluorescence across all identified objects from t = 0 through t = 10. Each experiment was performed in duplicate, with >50 individual cells or clusters analyzed in each experiment.

[4] = target: T1, SaFrmB (Staphylococcus aureus, UniProt A0A0H3KFB7); assay: Esterase substrate specificity, fluorogenic SAR library kinetics; assay type: biochemical; conditions: for In vitro activity (catalytic efficiency) for FrmB, in words: fluorogenic ester substrate; for Km: SaFrmB 15 µg/mL, pH 7.5, 37°C
T1 construct: made in house; host or cells: E. coli BL21 (DE3)
T1 sequence (A0A0H3KFB7 1-253): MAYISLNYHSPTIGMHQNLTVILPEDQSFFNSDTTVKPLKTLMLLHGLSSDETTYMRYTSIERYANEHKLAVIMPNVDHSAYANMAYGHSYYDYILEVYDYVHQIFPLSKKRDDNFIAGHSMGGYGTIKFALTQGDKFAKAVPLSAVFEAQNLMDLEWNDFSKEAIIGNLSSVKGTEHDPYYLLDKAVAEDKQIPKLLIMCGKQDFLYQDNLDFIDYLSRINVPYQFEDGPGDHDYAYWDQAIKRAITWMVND
Protocol: as §1

[5] = target: T2, SaGloB (Staphylococcus aureus, UniProt P0DY75); assay: as above; assay type: biochemical; conditions: for kcat/kuncat / Km: SaGloB; for kcat/kuncat: normalised to uncatalysed hydrolysis rate; for In vitro activity (catalytic efficiency) for GloB, in words / Km: fluorogenic ester substrate
T2 sequence (P0DY75 1-207): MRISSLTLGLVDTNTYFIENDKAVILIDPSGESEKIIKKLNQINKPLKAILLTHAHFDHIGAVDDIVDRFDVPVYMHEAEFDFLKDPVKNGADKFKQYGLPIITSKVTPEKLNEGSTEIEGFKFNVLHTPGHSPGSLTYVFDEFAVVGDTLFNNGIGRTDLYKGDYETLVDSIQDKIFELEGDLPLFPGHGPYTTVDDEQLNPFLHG
Protocol: as §1

[6] = target: T3, FrmB (Staphylococcus aureus, UniProt A0A0H3KFB7); assay: 4-Nitrophenyl ester substrate activity assay; assay type: biochemical; conditions: 1 µM protein, 1 mM substrate, 37°C, A405
T3 construct: made in house; host or cells: E. coli BL21 (DE3)
Protocol: (§2) 4-Nitrophenyl substrate-specific activity was determined in 50 µL reactions containing 25 mM Tris pH 7.5, 250 mM NaCl, 1 mM MnCl2, 10% glycerol, 1 µM protein, and 1 mM 4-nitrophenyl substrate. The tested substrates, 4-nitrophenyl acetate (Sigma, N8130), 4-nitrophenyl butyrate (Sigma N9876), and 4-nitrophenyl trimethylacetate (Sigma 135046), were resuspended in acetonitrile at 100 mM. Reactions without 4-nitrophenyl substrate were preincubated at 37°C for 10 min prior to assay initiation via substrate addition. Conversion of 4-nitrophenyl substrates to 4-nitrophenol was tracked photometrically at 37°C and A405nm. Experiments were performed in triplicate with technical duplicates.

[7] = tested on: GloB; assay: 4-Nitrophenyl ester substrate activity assay; assay type: biochemical, Staphylococcus aureus; conditions: 1 µM protein, 1 mM substrate, 37°C, A405
Protocol: as §2

[8] = target: T1, SaFrmB; assay: Glyoxalase II activity assay (DTNB coupled); assay type: biochemical; conditions: 1 mM substrate, 37°C, 412 nm
Protocol: (§3) Glyoxalase II activity was assessed as previously with minor changes ([Mikati et al., 2020]; [Stamp et al., 2010]). Briefly, reactions were mixed to form a final concentration of 25 mM Tris pH 7.5, 250 mM NaCl, 1 mM MnCl2, 10% glycerol, 200 µM 5,5’-dithiobis(2-nitrobenzoic acid) (DTNB, Sigma D8130), 1 mM D-lactoylglutathione (Sigma L7140), and 0.15–0.63 µg protein (130–550 nM GloB, 100–430 nM FrmB). Protein concentrations were varied to ensure the reaction was linear across protein concentrations. Reactions without D-lactoylglutathione were pre-incubated at 37°C for 10 min prior to assay initiation with the addition of substrate. Release of glutathione from D-lactoylglutathione was quantified spectrophotometrically at 37°C and 412 nm through the conversion of DTNB to TNB. Experiments were performed in triplicate with technical duplicates.

[9] = target: T2, SaGloB; assay: Glyoxalase II activity assay (DTNB coupled); assay type: biochemical; conditions: 1 mM substrate, 37°C, 412 nm
Protocol: as §3

Row | Compound | Km [1] [µM] | Km [2] [µM] | In vitro activity (catalytic efficiency) for FrmB, in words [4] | In vitro activity (catalytic efficiency) for GloB, in words [5] | Intracellular activation (fluorescence) in live S. aureus, in words [3] | Km [4] [µM] | Hydrolysis of 4-nitrophenyl ester by FrmB, in words [6] | Hydrolysis of 4-nitrophenyl ester by GloB, in words [7] | further results
1 | COCC(=O)OCOc1ccc2c(c1)Oc1cc(OCOC(=O)COC)ccc1C21OC(=O)c2ccccc21 [1O] | 64.1 | > 50 | high activity; also recorded: highest catalytic efficiency substrate | high activity; also recorded: highest catalytic efficiency substrate |  |  |  |  | Vmax [1]: 68.6 pmol*min-1*mg sera-1; Time to intracellular fluorescence saturation ([3]; images every 2 min): < 2 min; kcat/kuncat ([4]; SaFrmB): 1.34 103; kcat/kuncat [5]: 38.6 103
2 | CCCCCC(=O)OCOc1ccc2c(c1)Oc1cc(OCOC(=O)CCCCC)ccc1C21OC(=O)c2ccccc21 [3C] | > 50 | > 50 | moderate activity | moderate activity | slowly activates over the duration of the experiment | > 50 |  |  | Km [5]: > 50 µM
3 | CC(=O)Oc1ccc([N+](=O)[O-])cc1 [4-nitrophenyl acetate] |  |  |  |  |  |  | modest activity | no detectable activity | 
4 | CCCC(=O)Oc1ccc([N+](=O)[O-])cc1 [4-nitrophenyl butyrate] |  |  |  |  |  |  | modest activity | no detectable activity | 
5 | CC(C)(C)C(=O)Oc1ccc([N+](=O)[O-])cc1 [4-nitrophenyl trimethylacetate] |  |  |  |  |  |  | no activity | no detectable activity | 
6 | CCOCCC(=O)OCOc1ccc2c(c1)Oc1cc(OCOC(=O)CCOCC)ccc1C21OC(=O)c2ccccc21 [5O] | 35.4 | > 50 | poor activity | moderate activity | never appreciably activates | > 50 |  |  | Vmax [1]: 2.25 pmol*min-1*mg sera-1; kcat/kuncat [5]: 17.0 103
7 | CCC(CC)C(=O)OCOc1ccc2c(c1)Oc1cc(OCOC(=O)C(CC)CC)ccc1C21OC(=O)c2ccccc21 [9C] | > 50 | 12.3 | poor activity | poor activity | never appreciably activates | > 50 |  |  | Vmax [2]: 3.18 pmol*min-1*mg sera-1; Km [5]: > 50 µM
8 | CC(O)C(=O)SCC(NC(=O)CCC(N)C(=O)O)C(=O)NCC(=O)O (stereo not drawn) [S-lactoylglutathione] |  |  |  |  |  |  |  |  | Glyoxalase II activity (hydrolysis of substrate), in words [8]: lacks appreciable glyoxalase activity; Glyoxalase II activity (hydrolysis of substrate), in words [9]: specific activity comparable to previously characterized microbial type II glyoxalases
